Consider four molecules from EP4603477A1, “INHIBITORS OF THE CORONAVIRUS ACCESSORY PROTEIN ORF9B” (Consejo Superior De Investigaciones Científicas, priority 2024, dated 2025).

For this experiment, the system named is THP-1 cells stably integrating and constitutively expressing ORF9b. The experiment is described as follows: Cytokine quantification (Procartaplex multiplex) in THP-1 cells expressing ORF9b. It is filed as cell-based. Particulars: 1 µM or 5 µM. On the procedure: THP-1 cells stably integrating and constitutively expressing ORF9b were generated as described under "Biochemical and biological activity (2)". Cytokines (IL-1β, IL-18, IL-10, TNF-α) were quantified by means of Procartaplex multiplex assays (InVitrogen, ThermoFisher), following instructions by the supplier. Briefly, capture beads were incubated for 2 h with cleared cell supernatants, washed and incubated with biotinylated detection antibody mix, incubated for 30 min, washed and incubated with Streptavidin-PE for 30 min, washed and data acquired on a Luminex 200 instrument. To ascertain the effect of ORF9b homodimerization inhibitors on ORF9b-mediated cytokine secretion, THP1-1 cells with the above modifications were treated with 1 µM or 5 µM of each of the compounds (final concentrations in cell culture media), and cytokine levels determined in cell culture supernatants. All determinations were performed in triplicate, and analyzed statistically significance in differences by means of a two-tailed Student's t-test. Inhibition of ORF9b-mediated secretion of cytokines was considered significant with p values ≤ 0.05.
Consider `CC(C)(O)c1coc(S(=O)(=O)NC(=O)Nc2c3c(cc4c2CCC4)CCC3)c1` [MCC950, reference compound], for which the “ORF9b-induced release of IL-1β” value is “abrogated”, the “ORF9b-induced release of IL-10” value was “abrogated”, the “ORF9b-induced release of IL-18” value is recorded as “abrogated” and the “ORF9b-induced release of TNF-α” value is reported as “abrogated”.

Consider `Nc1ccc(F)c(NC(=O)c2cccc3ccccc23)c1` [Compound 2, N-(5-Amino-2-fluorophenyl)-1-naphthamide], for which the “ORF9b-induced release of IL-1β” value is listed as “inhibited”, the “ORF9b-induced release of IL-10” value is “inhibited” and the “ORF9b-induced release of IL-18” value is listed as “inhibited”.

As for `Nc1ccc(F)c(NC(=O)Cc2ccccc2)c1` [Compound 1], the “ORF9b-induced release of IL-1β” value is recorded as “inhibited”, the “ORF9b-induced release of IL-10” value is “inhibited” and the “ORF9b-induced release of IL-18” value is on record as “inhibited”.

`O=C(Cc1ccc(Cl)cc1)Nc1cc([N+](=O)[O-])ccc1F` [Compound 6, 2-(4-Chlorophenyl)-N-(2-fluoro-5-nitrophenyl)acetamide]: the “ORF9b-induced release of IL-1β” value is “inhibited”, the “ORF9b-induced release of IL-10” value is given as “inhibited” and the “ORF9b-induced release of IL-18” value is “inhibited”.
